Assay results as given in the NIST ThermoML archive (doi:10.1016/j.jct.2012.03.005).
Numbers after ± are expanded uncertainties.

Columns and labels:
[1] = 101.33 kPa, Liquid, Vibrating tube method
[2] = activity coefficient (dimensionless); of the first substance listed, at infinite dilution; xn = mol fraction of the nth substance listed; settings: 101 kPa, Liquid, Chromatography, x1 = 0

Structure (SMILES) | mass density ([1]; 298.15 K) [kg/m3] | mass density ([1]; 308.15 K) [kg/m3] | mass density ([1]; 318.15 K) [kg/m3] | mass density ([1]; 328.15 K) [kg/m3] | mass density ([1]; 338.15 K) [kg/m3] | mass density ([1]; 348.15 K) [kg/m3] | mass density ([1]; 358.15 K) [kg/m3] | activity coefficient ([2]; 308.15 K) | activity coefficient ([2]; 318.15 K) | activity coefficient ([2]; 328.15 K) | activity coefficient ([2]; 338.15 K) | activity coefficient ([2]; 348.15 K) | activity coefficient ([2]; 358.15 K)
C1CCOC1 [tetrahydrofuran] + CCn1cc[n+](C)c1.CS(=O)(=O)[O-] |  |  |  |  |  |  |  | 5.42 ± 0.37 | 5.3 ± 0.36 | 5.2 ± 0.4 | 5.1 ± 0.35 | 5 ± 0.34 | 4.91 ± 0.33
Cc1ccccc1 [toluene] + CCn1cc[n+](C)c1.CS(=O)(=O)[O-] |  |  |  |  |  |  |  | 9.13 ± 0.62 | 9.03 ± 0.62 | 8.88 ± 0.61 | 8.77 ± 0.6 | 8.65 ± 0.59 | 8.53 ± 0.58

Results, then the compound that gave them:

mass density ([1]; 298.15 K) [kg/m3] | mass density ([1]; 308.15 K) [kg/m3] | mass density ([1]; 318.15 K) [kg/m3] | mass density ([1]; 328.15 K) [kg/m3] | mass density ([1]; 338.15 K) [kg/m3] | mass density ([1]; 348.15 K) [kg/m3] | mass density ([1]; 358.15 K) [kg/m3] | activity coefficient ([2]; 308.15 K) | activity coefficient ([2]; 318.15 K) | activity coefficient ([2]; 328.15 K) | activity coefficient ([2]; 338.15 K) | activity coefficient ([2]; 348.15 K) | activity coefficient ([2]; 358.15 K) | Structure (SMILES)
1239.96 ± 0.43 | 1233.22 ± 0.42 | 1226.51 ± 0.42 | 1219.84 ± 0.41 | 1213.2 ± 0.41 | 1206.63 ± 0.4 | 1200.08 ± 0.4 |  |  |  |  |  |  | CCn1cc[n+](C)c1.CS(=O)(=O)[O-] [1-ethyl-3-methylimidazolium methanesulfonate]
 |  |  |  |  |  |  | 1.87 ± 0.13 | 1.92 ± 0.13 | 1.96 ± 0.13 | 2 ± 0.14 | 2.05 ± 0.14 | 2.09 ± 0.14 | c1ccsc1 [thiophene] + CCn1cc[n+](C)c1.CS(=O)(=O)[O-]
 |  |  |  |  |  |  |  | 0.071 ± 0.03 | 0.075 ± 0.03 | 0.079 ± 0.03 | 0.083 ± 0.03 | 0.088 ± 0.03 | O [water] + CCn1cc[n+](C)c1.CS(=O)(=O)[O-]
